Measured values reported in ChEMBL document CHEMBL1201862, “PubChem BioAssay data set” (2004).
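1) Cells in 96-well plates. 2) Compound, 48 h, 5 concentrations. 3) Linear interpolation between surrounding doses. 4) Unreached endpoint = highest concentration. GI50 = concentration required for 50% inhibition of growth.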 Calls of active or inactive are those of the source. No stated cut-off is given here; in the data, active = GI50 up to about 1.1 µM and inactive = higher. Where a SMILES comes first, the peptide text is derived from it. [ ]: non-standard residue; d: D form. The star is where a group is joined. ξ: configuration not given here. X4 = COc1ccc(C(N*)c2ccc(OC)cc2)cc1; NMeF = CN[C@@H](Cc1ccccc1)C(=O)O; NMeD = CN[C@@H](CC(=O)O)C(=O)O; NMeV = CN[C@H](C(=O)O)C(C)C; ξNMeV = CNC(C(=O)O)C(C)C; Boc = CC(C)(C)OC(=O)*; ξNMeA = CNC(C)C(=O)O; ξV = CC(C)C(N)C(=O)O

Columns and labels:
Assay in all cases: NCI tumour cell line growth inhibition, 48 h
OVCAR-5 = test system: OVCAR-5
MCF7 = test system: MCF7
SK-OV-3 = test system: SK-OV-3
EKVX = test system: EKVX
XF498 = test system: XF498
MDA-MB-435 = test system: MDA-MB-435
HT-29 = test system: HT-29
HCT-15 = test system: HCT-15
SK-MEL-2 = test system: SK-MEL-2
T47D = test system: T47D
K562 = test system: K562
Hs-578T = test system: Hs-578T
NCI-H226 = test system: NCI-H226
PC-3 = test system: PC-3
SW-620 = test system: SW-620
SNB-75 = test system: SNB-75
DMS-114 = test system: DMS-114
LOX IMVI = test system: LOX IMVI
SN12C = test system: SN12C
OVCAR-8 = test system: OVCAR-8

Measured: GI50

COc1ccc(C(NC(=O)C[C@@H](C(=O)N(C)C(C)C(=O)O)N(C)C(=O)[C@@H]2CCCN2C(=O)[C@H](C(C)C)N(C)C(=O)C(C(C)C)N(C)C(=O)[C@H](Cc2ccccc2)N(C)C(=O)C(NC(=O)OC(C)(C)C)C(C)C)c2ccc(OC)cc2)cc1 (stereo not given in full) (Boc-[ξV][NMeF][ξNMeV][NMeV]P[NMeD](X4)[ξNMeA]-OH)
inactive: OVCAR-5 > 37.5 µM | MCF7 16.1 µM | SK-OV-3 > 37.5 µM | EKVX 25.6 µM | XF498 15.8 µM | MDA-MB-435 9.1 µM | HT-29 16.2 µM | SK-MEL-2 7.74 µM | T47D 11.9 µM | K562 11 µM | Hs-578T 2.56 µM | NCI-H226 7.64 µM | PC-3 13.7 µM | SW-620 8.18 µM | SNB-75 4.24 µM | DMS-114 16.5 µM | LOX IMVI 7.66 µM | SN12C 25.5 µM | OVCAR-8 22.1 µM
21.9 µM: HCT-15
